{"source": "patent US20060058217A1", "about": "“Compositions and methods for treatment of ovarian cancer” (priority 2003, published 2006)", "key": {"[1]": {"test_system": "stimulated splenic T-cells (CD3+ and CD8+)", "assay": "FACS analysis of splenic CD3+ and CD8+ cells co-cultured with tumor ascites inhibitory cells", "format": "cell-based, mouse", "settings": "antalarmin 0.5 to 1 micromolar; co-culture with tumor ascites inhibitory cells"}, "[2]": {"test_system": "implantation sites and live embryos", "settings": "rodents; antalarmin administration; cited from earlier work"}, "Fas ligand": {"test_system": "Fas ligand", "settings": "resulting in decreased apoptosis of fetal cell-recognizing T-cells; cited from earlier work"}, "spleen cells": {"test_system": "spleen cells", "assay": "splenic cell yields after challenge with ID8 murine ovarian carcinoma cells", "format": "in vivo, C57BL6 mice", "excerpt": "Normal C57BL6 mice were challenged with ID8 murine ovarian carcinoma cells (intraperitoneally) in the presence of control vehicle (diluent), antalarmin, T-cell stimulation with 2C11 antibody, or antalarmin plus T-cell stimulation. Ten days after challenge, spleen cells were harvested and T-cells were restimulated with either antibody to the T-cell receptor and co-receptor or ID8 tumor cells in the presence of antalarmin, antibody stimulation, or a combination of antalarmin plus antibodies to T-cell receptor and co-receptor. Six days later, cells were harvested and tested for splenic cell yields. […] Treatment with tumor cells plus antalarmin plus antibody stimulation in the in vivo priming phase, followed by restimulation with irradiated tumor cells in the presence of antalarmin, provided conditions also favorable for preventing spleen cell loss induced by tumor cells. Thus, antalarmin was an important factor in preserving immune cells in vivo in the initial phases of ovarian cancer disease."}, "[3]": {"test_system": "splenic cytotoxic T-cells", "assay": "redirected lysis assay of spleen cells co-cultured with tumor ascites inhibitory cells", "format": "cell-based, mouse", "settings": "antalarmin 0.5 to 1 micromolar; 3 days co-culture in vitro; stimulation with anti-CD3/CD28 monoclonal antibodies", "description": "To assess the IL-2 responsiveness of T-cells within murine ascites, whole populations of cells were cultured overnight for up to 3 days with IL-2 and then tested for lytic activity using the redirected lysis assay. The assay was similar to the assay described for human cells but an anti-mouse CD3 monoclonal antibody (2C11) was used instead of OKT3. While control splenic cells from non-tumor bearing mice contained cytotoxic T-cell lytic function, the ascites samples had no IL-2 responsive T-cell lytic activity.\nExperiments were then performed with antalarmin, a CRH receptor antagonist, to determine if manipulation of CRH activity was involved in the regulation of lytic activity in ovarian carcinoma cells. Spleen cells from normal non-tumor bearing mice were co-cultured in vitro for 3 days with tumor ascites inhibitory cells from the mouse model system. […]\nFreshly isolated reproductive tract cells were tested for lytic function by an anti-CD3 mAb (OKT3)-dependent redirected lysis assay (White et al., J. Immunology 158:3017, 1997). […] The chromium released into the supernatant fraction was measured to obtain the percent specific cytotoxicity (% specific lysis), i.e. percent of labeled target cells killed by CD3+ effector cells, using duplicate wells and a titration of 3 effector to target ratios. […]"}}, "data": [{"smiles": "CCCCN(CC)c1nc(C)nc2c1c(C)c(C)n2-c1c(C)cc(C)cc1C", "note": "[antalarmin]", "values": [{"measurement": "loss of CD3-stimulated T-cells mediated by murine ascites inhibitory cells", "setting": "[1]", "value": "prevent the loss of CD3− stimulated T-cells"}, {"measurement": "number of implantation sites and live embryos", "setting": "[2]", "value": "decreased the number of implantation sites an live embryos"}, {"measurement": "fetal cell Fas ligand expression", "setting": "Fas ligand", "value": "decrease fetal cell Fas ligand expression"}, {"measurement": "loss of spleen cells at early stages of ovarian carcinoma disease", "setting": "spleen cells; ID8 cells intraperitoneally, spleen cells harvested ten days after challenge, restimulated, yields tested six days later", "value": "prevented the loss of spleen cells"}, {"measurement": "splenic cell yields", "setting": "spleen cells; antalarmin added to tumor cells for in vivo priming phase, then non-specific stimulation or no stimulation in restimulation phase", "value": "best yields of spleen cells"}, {"measurement": "cytotoxic T-cell lytic function down-regulated by tumor ascites inhibitory cells", "setting": "[3]", "value": "prevented the down-regulation"}]}]}
